Laboratory results taken from patent US9957271B2, “Substituted bicyclic aza-heterocycles and analogues as sirtuin modulators” (GlaxoSmithKline, LLC, priority 2012, dated 2018).

Target: T1, SIRT1 (Homo sapiens, UniProt Q96EB6)
T1 sequence (Q96EB6 1-747): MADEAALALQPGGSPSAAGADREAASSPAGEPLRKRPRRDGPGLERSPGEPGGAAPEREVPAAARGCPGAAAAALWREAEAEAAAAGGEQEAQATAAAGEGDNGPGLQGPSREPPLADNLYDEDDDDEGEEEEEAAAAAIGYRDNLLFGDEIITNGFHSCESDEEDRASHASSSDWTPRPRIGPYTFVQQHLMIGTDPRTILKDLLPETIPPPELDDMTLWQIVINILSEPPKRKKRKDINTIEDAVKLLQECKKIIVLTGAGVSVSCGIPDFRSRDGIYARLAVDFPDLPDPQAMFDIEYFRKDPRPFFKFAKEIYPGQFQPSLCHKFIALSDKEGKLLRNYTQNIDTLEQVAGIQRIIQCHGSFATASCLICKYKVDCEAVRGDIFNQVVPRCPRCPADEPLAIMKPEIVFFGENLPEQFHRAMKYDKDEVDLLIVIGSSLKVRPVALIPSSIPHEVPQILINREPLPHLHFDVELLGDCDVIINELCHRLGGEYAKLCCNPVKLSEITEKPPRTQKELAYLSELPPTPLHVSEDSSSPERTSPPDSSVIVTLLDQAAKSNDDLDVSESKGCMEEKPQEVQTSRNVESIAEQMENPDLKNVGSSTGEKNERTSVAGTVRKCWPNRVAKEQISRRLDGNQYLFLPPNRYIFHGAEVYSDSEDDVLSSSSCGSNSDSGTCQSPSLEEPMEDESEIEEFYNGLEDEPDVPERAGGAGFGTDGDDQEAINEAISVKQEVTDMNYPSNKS
Experiment: TAMRA based mass spectrometry assay of SIRT1 activity
Format: biochemical
Settings: TAMRA assay; for TAMRA EC1.5 (μM): concentration giving 150% activation of SIRT1; for Emax: read-out: TAMRA % Fold Act
Procedure, shortened: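 Deacetylation of a biotinylated, TAMRA-tagged p53-based peptide (0.5 μM) by 10 nM His-tagged SIRT1 with 120 μM βNAD+, 25 °C for 25 min, pH 8 Tris-acetate buffer, across a compound concentration range. Quenched by formic acid and read by mass spec as product peptide or OAADPR; activity relative to DMSO reactions, nicotinamide defining maximal inhibition.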

[1] = percent maximum fold activation

| TAMRA EC1.5 (μM) | Emax [1] | TAMRA % Fold Act [1] | SMILES |
| --- | --- | --- | --- |
| A (EC1.5<1 μM) | ≥ 350% |  | Cc1cc(-c2ccccc2C(F)(F)F)nn2c(C(=O)Nc3cnccn3)cnc12 [Compound 208] |
| A (EC1.5<1 μM) | ≥ 350% |  | Cc1cccnc1C(=O)Nc1cnc2ccc(-c3ccccc3C(F)(F)F)nn12 [Compound 232] |
| A (EC1.5<1 μM) | ≥ 350% |  | Cc1cccc(C(=O)Nc2cnc3ccc(-c4ccccc4C(F)(F)F)nn23)n1 [Compound 234] |
| A (EC1.5<1 μM) | ≥ 350% |  | O=C(Nc1cccc(N2CCOCC2)n1)c1cnn2ccc(-c3ccccc3C(F)(F)F)nc12 [Compound 241] |
| B (EC1.5 1-25 μM) | ≥ 350% |  | Cc1cc2ncc(C(=O)Nc3cnccn3)n2nc1-c1ccccc1C(F)(F)F [Compound 246] |
| A (EC1.5<1 μM) | ≥ 350% |  | Cc1cc(C)nc(NC(=O)c2cnc3ccc(-c4ccccc4C(F)(F)F)nn23)n1 [Compound 247] |
| C (EC1.5>25 μM) | < 350% |  | O=C(Nc1cnn2ccc(-c3ccccc3C(F)(F)F)nc12)c1cccnc1 [Compound 250] |
| B (EC1.5 1-25 μM) | ≥ 350% |  | O=C(Nc1cnn2ccc(-c3ccccc3C(F)(F)F)nc12)c1ncccn1 [Compound 252] |
| B (EC1.5 1-25 μM) | ≥ 350% |  | O=C(Nc1cnn2ccc(-c3ccccc3C(F)(F)F)nc12)c1cnccn1 [Compound 253] |
| A (EC1.5<1 μM) | ≥ 350% |  | O=C(Nc1cnn2ccc(-c3ccccc3C(F)(F)F)nc12)c1cccc(N2CCOCC2)n1 [Compound 256] |
| B (EC1.5 1-25 μM) | ≥ 350% |  | O=C(Nc1cccc(OCC(F)(F)F)n1)c1cnc2ccc(-c3ccccc3C(F)(F)F)nn12 [Compound 264] |
| A (EC1.5<1 μM) | ≥ 350% |  | O=C(Nc1ccccn1)c1cnn2ccc(-c3ccccc3C(F)(F)F)nc12 [Compound 265, N-(pyridin-2-yl)-5-(2-(trifluoromethyl)phenyl)pyrazolo[1,5-a]pyrimidine-3-carboxamide] |
| A (EC1.5<1 μM) | ≥ 350% |  | O=C(Nc1ccncn1)c1cnn2ccc(-c3ccccc3C(F)(F)F)nc12 [Compound 268] |
| A (EC1.5<1 μM) | ≥ 350% |  | Cc1ccnc(NC(=O)c2cnc3ccc(-c4ccccc4C(F)(F)F)nn23)n1 [Compound 270] |
| A (EC1.5<1 μM) | ≥ 350% |  | CC(C)c1nccc(C(=O)Nc2cnc3ccc(-c4ccccc4C(F)(F)F)nn23)n1 [Compound 274] |
| A (EC1.5<1 μM) | ≥ 350% |  | Cc1ccc(NC(=O)c2cnc3ccc(-c4ccccc4C(F)(F)F)nn23)nn1 [Compound 276] |
| B (EC1.5 1-25 μM) | < 350% |  | CC(CO)(CO)Oc1nccc(NC(=O)c2cnc3ccc(-c4ccccc4C(F)(F)F)nn23)n1 [Compound 278] |

Further lines, the compound ahead of its results:

| SMILES | TAMRA EC1.5 (μM) | Emax [1] | TAMRA % Fold Act [1] |
| --- | --- | --- | --- |
| N#Cc1ccccc1-c1ccc2ncc(C(=O)Nc3ccccn3)n2n1 [Compound 200] | B (EC1.5 1-25 μM) | < 350% |  |
| N#Cc1ccccc1-c1ccc2ncc(C(=O)Nc3ccnc(N4CCC4)c3)n2n1 [Compound 201] | B (EC1.5 1-25 μM) | ≥ 350% |  |
| N#Cc1ccccc1-c1ccc2ncc(C(=O)Nc3cccc(CN4CCOCC4)n3)n2n1 [Compound 202] | B (EC1.5 1-25 μM) | < 350% |  |
| N#Cc1ccccc1-c1ccc2ncc(C(=O)Nc3ccncc3)n2n1 [Compound 203] | B (EC1.5 1-25 μM) | < 350% |  |
| N#Cc1ccccc1-c1ccc2ncc(C(=O)Nc3cnccn3)n2n1 [Compound 205] | B (EC1.5 1-25 μM) | < 350% |  |
| Cc1cc2ncc(C(=O)Nc3cccc(N4CCOCC4)n3)n2nc1-c1ccccc1C(F)(F)F [Compound 209] | A (EC1.5<1 μM) | ≥ 350% |  |
| O=C(Nc1ncccc1N1CCOCC1)c1cnc2ccc(-c3ccccc3C(F)(F)F)nn12 [Compound 211] | C (EC1.5>25 μM) | < 350% |  |
| O=C(Nc1cccc(OCC(O)CO)n1)c1cnc2ccc(-c3ccccc3C(F)(F)F)nn12 (stereo not shown) [Compound 212, N-(6-(2,3-dihydroxypropoxy)pyridin-2-yl)-6-(2-(trifluoromethyl)phenyl)imidazo[1,2-b]pyridazine-3-carboxamide] | A (EC1.5<1 μM) | ≥ 350% |  |
| O=C(Nc1ccc(N2CCOCC2)nc1)c1cnc2ccc(-c3ccccc3C(F)(F)F)nn12 [Compound 216] | B (EC1.5 1-25 μM) | ≥ 350% |  |
| O=C(Nc1cncc(N2CCOCC2)c1)c1cnc2ccc(-c3ccccc3C(F)(F)F)nn12 [Compound 217] | A (EC1.5<1 μM) | ≥ 350% |  |
| Cc1cnc(C(=O)Nc2cnc3ccc(-c4ccccc4C(F)(F)F)nn23)cn1 [Compound 219, 5-methyl-N-(6-(2-(trifluoromethyl)phenyl)imidazo[1,2-b]pyridazin-3-yl)pyrazine-2-carboxamide] | A (EC1.5<1 μM) | ≥ 350% |  |
| Cc1nc(C(=O)Nc2cnc3ccc(-c4ccccc4C(F)(F)F)nn23)c(C)s1 [Compound 220] | A (EC1.5<1 μM) | ≥ 350% |  |
| Cc1cc2ncc(C(=O)Nc3ccnc(N4CCC4)c3)n2nc1-c1ccccc1C(F)(F)F [Compound 225] | A (EC1.5<1 μM) | ≥ 350% |  |
| O=C(Nc1nccc(OCC(O)CO)n1)c1cnc2ccc(-c3ccccc3C(F)(F)F)nn12 (stereo not shown) [Compound 226] | B (EC1.5 1-25 μM) | ≥ 350% |  |
| Cc1cc(C)nc(NC(=O)c2cnc3c(C)c(C)c(-c4ccccc4C(F)(F)F)nn23)c1 [Compound 228] | A (EC1.5<1 μM) | ≥ 350% |  |
| Cc1c(-c2ccccc2Cl)nn2c(C(=O)Nc3cccc(N4CCOCC4)n3)cnc2c1C [Compound 229] | A (EC1.5<1 μM) | ≥ 350% |  |
| O=C(Nc1cnc2ccc(-c3ccccc3C(F)(F)F)nn12)c1cccc(OCC(O)CO)n1 (stereo not shown) [Compound 235] | A (EC1.5<1 μM) |  | A (Fold activation ≥350%) |

| SMILES | TAMRA EC1.5 (μM) | Emax [1] | TAMRA % Fold Act [1] |
| --- | --- | --- | --- |
| Cc1nc(NC(=O)c2cnc3ccc(-c4ccccc4C(F)(F)F)nn23)sc1C [Compound 237] | A (EC1.5<1 μM) | ≥ 350% |  |
| O=C(Nc1ccncc1)c1cnn2ccc(-c3ccccc3C(F)(F)F)nc12 [Compound 240, N-(pyridin-4-yl)-5-(2-(trifluoromethyl)phenyl)pyrazolo[1,5-a]pyrimidine-3-carboxamide] | A (EC1.5<1 μM) | ≥ 350% |  |
| Cc1cc(C)nc(NC(=O)c2cnc3ccc(-c4ccccc4F)nn23)c1 [Compound 243] | A (EC1.5<1 μM) | ≥ 350% |  |
| Cc1cc(C)nc(NC(=O)c2cnc3ccc(-c4ccccc4Cl)nn23)c1 [Compound 245] | A (EC1.5<1 μM) | ≥ 350% |  |
| O=C(Nc1cccc(OCC(F)(F)F)n1)c1cnc2ccc(-c3ccccc3F)nn12 [Compound 258] | C (EC1.5>25 μM) | < 350% |  |
| Cc1cc(NC(=O)c2cnc3ccc(-c4ccccc4Cl)nn23)ccn1 [Compound 259] | B (EC1.5 1-25 μM) | ≥ 350% |  |
| O=C(Nc1cccc(OCC(F)(F)F)n1)c1cnc2ccc(-c3ccccc3Cl)nn12 [Compound 262] | C (EC1.5>25 μM) | < 350% |  |
| Cc1scnc1C(=O)Nc1cnc2ccc(-c3ccccc3C(F)(F)F)nn12 [Compound 271] | A (EC1.5<1 μM) | ≥ 350% |  |
| Cc1cc(OCC2(C)COC2)nc(NC(=O)c2cnc3ccc(-c4ccccc4C(F)(F)F)nn23)n1 [Compound 277] | A (EC1.5<1 μM) | ≥ 350% |  |
| O=C(Nc1cnc2ccc(-c3ccccc3F)nn12)c1cnccn1 [Compound 280] | B (EC1.5 1-25 μM) | < 350% |  |
| O=C(Nc1cnc2ccc(-c3ccccc3F)nn12)c1ncccn1 [Compound 282] | B (EC1.5 1-25 μM) | < 350% |  |
| O=C(Nc1ccnc(OCC(O)CO)c1)c1cnc2ccc(-c3ccccc3Cl)nn12 (stereo not shown) [Compound 283] | A (EC1.5<1 μM) | < 350% |  |
| Cc1cc(OCC(O)CO)nc(NC(=O)c2cnc3ccc(-c4ccccc4F)nn23)n1 (stereo not shown) [Compound 286] | B (EC1.5 1-25 μM) | < 350% |  |
| O=C(Nc1cnc2ccc(-c3ccccc3Cl)nn12)c1cnccn1 [Compound 288] | B (EC1.5 1-25 μM) | < 350% |  |
| O=C(Nc1cnc2ccc(-c3ccccc3Cl)nn12)c1ccncn1 [Compound 289] | B (EC1.5 1-25 μM) | < 350% |  |
| Cc1nc(C(=O)Nc2cnc3ccc(-c4ccccc4Cl)nn23)cs1 [Compound 292] | A (EC1.5<1 μM) | ≥ 350% |  |
